Read-outs that look alike come from different tables or passages of the source.

In one assay the test system is HCT116 MTAP null cells. In words: HCT116 proliferation assay, MTAP null cells (CellTiter-Glo, 6 days). In kind it is cell-based. Particulars: read-out: Protif_ HCT116-MTAP null IC50. As for the experimental part:
(§1) HCT116 MTAP null and WT cells were seeded in 96-well tissue culture plates in RPMI 1640 media + 10% fetal bovine serum. Plates were incubated overnight at 37° C. and 5% CO2. Cells were then treated with a 8- or 9-point serial dilution of compound, using a top concentration of 1 or 10 µM, 1:3 serial dilution steps and, a DMSO-only control. Cells were incubated in the presence of drug for 6 days. Effects on cell viability were measured with the CellTiter-Glo® Luminescent Cell Viability Assay (Promega) per manufacturer’s recommendation. Assay plates were read on an EnVision™ Multilabel Reader using the Ultra-Sensitive luminescence module.
For orientation: Cellular ATP, detected with luciferase, serves as a proxy for viable cell number.

For another assay, the system named is HCT116 WT cells. Kind of assay: HCT116 proliferation assay, WT cells (CellTiter-Glo, 6 days). In kind it is cell-based. Particulars: read-out: Prolif_HCT116-WT IC50. How it is done: as §1

As to `Cc1cc2cc(C(=O)N(Cc3ccc(C(F)(F)F)cn3)Cc3ncoc3C)ccc2nc1N` [Example 579, 2-amino-3-methyl-N-[(5-methyloxazol-4-yl)methyl]-N-[[5-(trifluoromethyl)-2-pyridyl]methyl]quinoline-6-carboxamide], the IC50 – broadly, the concentration that inhibits the measured activity by half – was 95 nM in the assay with HCT116 MTAP null cells (HCT116-MTAP null, 144 h) and > 1000 nM in the assay with HCT116 WT cells (Homo sapiens, HCT-116, 144 h).
In the same order, the values of `Cc1cc2cc(C(=O)N(Cc3ccc(C(F)(F)F)cn3)C(C)c3ccnc(F)c3)ccc2nc1N` (centres unmarked) [Example 797, 2-amino-N-(1-(2-fluoropyridin-4-yl)ethyl)-3-methyl-N-((5-(trifluoromethyl)pyridin-2-yl)methyl)quinoline-6-carboxamide] are 229 nM and 3820 nM.
The matching figures for `COC[C@H](C1CC1)N(Cc1ccc(N2CCOCC2)nn1)C(=O)c1ccc2nc(N)c(Br)cc2c1` [Example 732, 2-amino-3-bromo-N-((1S)-1-cyclopropyl-2-methoxyethyl)-N-((6-(4-morpholinyl)-3-pyridazinyl)methyl)-6-quinolinecarboxamide]: 231 nM and > 10000 nM.
In the same order, the values of `Cc1cc2cc(C(=O)N(Cc3ccc(C4CC4)cn3)[C@H](C)c3ncccn3)ccc2nc1N` [Example 821, (R)-2-amino-N-((5-cyclopropylpyridin-2-yl)methyl)-3-methyl-N-(1-(pyrimidin-2-yl)ethyl)quinoline-6-carboxamide] are 19 nM and 372 nM.
With `C[C@H](c1ncccn1)N(Cc1ccc(Cl)cn1)C(=O)c1cnc2nc(N)c(I)cc2c1` [Example 768, (R)-7-amino-N-((5-chloropyridin-2-yl)methyl)-6-iodo-N-(1-(pyrimidin-2-yl)ethyl)-1,8-naphthyridine-3-carboxamide], the IC50 in the assay on HCT116 MTAP null cells (HCT116-MTAP null, 144 h) was found to be 116 nM; in the assay with HCT116 WT cells (Homo sapiens, HCT-116, 144 h), 3960 nM.
In the same order, the values of `Cc1cc2cc(C(=O)N(Cc3ncccc3F)[C@H]3COc4cc(C(F)(F)F)ccc43)ccc2nc1N` (single isomer, unassigned) [Example 524] are 135 nM and 2350 nM.
For `Cc1cc2cc(C(=O)N(Cc3ccc(C(F)(F)F)cn3)[C@@H]3CCOC[C@H]3O)ccc2nc1N` (single isomer, unassigned) [Example 815], the IC50 was 250 nM in the assay on HCT116 MTAP null cells (HCT116-MTAP null, 144 h) and 5150 nM in the assay with HCT116 WT cells (Homo sapiens, HCT-116, 144 h).
In the same order, the values of `C[C@H](c1cccc(F)n1)N(Cc1ccc(C(F)(F)F)cn1)C(=O)c1cnc2nc(N)c(Br)cc2c1` [Example 800, (R)-7-amino-6-bromo-N-(1-(6-fluoropyridin-2-yl)ethyl)-N-((5-(trifluoromethyl)pyridin-2-yl)methyl)-1,8-naphthyridine-3-carboxamide] are 173 nM and 2790 nM.
The matching figures for `COc1ccc(CN(C(=O)c2ccc3nc(N)c(C)cc3c2)[C@H](C)c2ncn(C)n2)nn1` (single isomer, unassigned) [Example 785]: 123 nM and 2600 nM.
The matching figures for `CC[C@H](c1ncccn1)N(Cc1ccc(C(F)(F)F)cn1)C(=O)c1cnc2nc(N)c(Br)cc2c1` (single isomer, unassigned) [Example 443]: 96 nM and 2080 nM.
As for `N#CC[C@@H](C1CC1)N(Cc1ccc(C(F)(F)F)cn1)C(=O)c1ccc2nc(N)c(Br)cc2c1` [Example 778, (S)-2-amino-3-bromo-N-(2-cyano-1-cyclopropylethyl)-N-((5-(trifluoromethyl)pyridin-2-yl)methyl)quinoline-6-carboxamide], the IC50 was 72 nM with HCT116 MTAP null cells (HCT116-MTAP null, 144 h) and 2050 nM in the assay on HCT116 WT cells (Homo sapiens, HCT-116, 144 h).
In the case of `CC1CCCC1N(Cc1ccc(C(F)(F)F)cn1)C(=O)c1ccc2nc(N)c(Br)cc2c1` (centres unmarked) [Example 831, 2-amino-3-bromo-N-(2-methylcyclopentyl)-N-((5-(trifluoromethyl)pyridin-2-yl)methyl)quinoline-6-carboxamide], the concentration for half-maximal inhibition (IC50) with HCT116 MTAP null cells (HCT116-MTAP null, 144 h) was 440 nM; in the assay on HCT116 WT cells (Homo sapiens, HCT-116, 144 h), > 10000 nM.
The matching figures for `Cc1cc2cc(C(=O)N(Cc3ccc(C(F)(F)F)cn3)Cc3csnn3)ccc2nc1N` [Example 564, 2-amino-3-methyl-N-(thiadiazol-4-ylmethyl)-N-[[5-(trifluoromethyl)-2-pyridyl]methyl] quinoline-6-carboxamide]: 102 nM and > 1000 nM.
The matching figures for `Cc1nc(CN(C(=O)c2cnc3nc(N)c(I)cc3c2)[C@H](C)c2ncccn2)ccc1C#N` [Example 840, (R)-7-amino-N-((5-cyano-6-methylpyridin-2-yl)methyl)-6-iodo-N-(1-(pyrimidin-2-yl)ethy1)-1,8-naphthyridine-3-carboxamide]: 90 nM and 5500 nM.
In the same order, the values of `Cc1cc2cc(C(=O)N(Cc3ccc(OCC(F)(F)F)nn3)[C@H](C)c3ncccn3)ccc2nc1N` [Example 790, (R)-2-amino-3-methyl-N-(1-(pyrimidin-2-yl)ethyl)-N-((6-(2,2,2-trifluoroethoxy)pyridazin-3-yl)methyl) quinoline-6-carboxamide] are 156 nM and 5160 nM.
As to `COC[C@H](C1CC1)N(Cc1ccc(C(F)(F)F)cn1)C(=O)c1ccc2nc(N)c(C)cc2c1` (single isomer, unassigned) [Example 810], the IC50 is 594 nM in the assay on HCT116 MTAP null cells (HCT116-MTAP null, 144 h) and 5400 nM in the assay on HCT116 WT cells (Homo sapiens, HCT-116, 144 h).
Take “2-amino-N-((3R,4S)-3-fluorotetrahydro-2H-pyran-4-yl)-3-methyl-N-((5-(trifluoromethyl)-2-pyridinyl)methyl)-6-quinolinecarboxamide and 2-amino-N-((3S,4R)-3-fluorotetrahydro-2H-pyran-4-yl)-3-methyl-N-((5-(trifluoromethyl)-2-pyridinyl)methyl)-6-quinolinecarboxamide [Example 747]”: the IC50 is 385 nM with HCT116 MTAP null cells and 5260 nM with HCT116 WT cells.
Turning to `Cc1cc2cc(C(=O)N(Cc3ccc(C(F)(F)F)cn3)[C@H](C)c3cccc(C#N)n3)ccc2nc1N` (single isomer, unassigned) [Example 811], the IC50 in the assay on HCT116 MTAP null cells (HCT116-MTAP null, 144 h) was 422 nM; in the assay on HCT116 WT cells (Homo sapiens, HCT-116, 144 h), > 10000 nM.
The matching figures for `Cc1cc2cc(C(=O)N(Cc3ccc(OC(F)F)nn3)C(C)c3ncccn3)ccc2nc1N` (centres unmarked) [Example 742, 2-amino-N-((6-(difluoromethoxy)pyridazin-3-yl)methyl)-3-methyl-N-(1-(pyrimidin-2-yl)ethyl)quinoline-6-carboxamide]: 40 nM and 1170 nM.
In the same order, the values of `CCOC(C)CN(Cc1ccc(C(F)(F)F)cn1)C(=O)c1ccc2nc(N)c(C)cc2c1` (centres unmarked) [Example 584, 2-amino-N-(2-ethoxypropyl)-3-methyl-N-((5-(trifluoromethyl)pyridin-2-yl)methyl)quinoline-6-carboxamide] are 290 nM and > 1000 nM.
On to `CCOc1ccc(CN(C(=O)c2cnc3nc(N)c(I)cc3c2)[C@H](C)c2ncccn2)nn1` [Example 772, (R)-7-amino-N-((6-ethoxypyridazin-3-yl)methyl)-6-iodo-N-(1-(pyrimidin-2-yl)ethyl)-1,8-naphthyridine-3-carboxamide], for which the IC50 with HCT116 MTAP null cells (HCT116-MTAP null, 144 h) was found to be 437 nM; with HCT116 WT cells (Homo sapiens, HCT-116, 144 h) it was 17600 nM.
In the same order, the values of `Cc1cc2cc(C(=O)N(Cc3ccc(C(F)(F)F)cn3)C(C)c3cccc(C#N)n3)ccc2nc1N` (centres unmarked) [Example 806, 2-amino-N-(1-(6-cyanopyridin-2-yl)ethyl)-3-methyl-N-((5-(trifluoromethyl)pyridin-2-yl)methyl) quinoline-6-carboxamide] are 552 nM and 6800 nM.
In the same order, the values of `C[C@H](c1ncccn1)N(Cc1ccc(C(F)(F)F)cn1)C(=O)c1ccc2nc(N)ccc2c1` [Example 765, (R)-2-amino-N-(1-(pyrimidin-2-yl)ethyl)-N-((5-(trifluoromethyl)pyridin-2-yl)methyl)quinoline-6-carboxamide] are 180 nM and 512 nM.
The matching figures for `CC[C@H](c1ncccn1)N(Cc1ccc(C#N)cn1)C(=O)c1ccc2nc(N)c(I)cc2c1` [Example 760, (R)-2-amino-N-((5-cyanopyridin-2-yl)methyl)-3-iodo-N-(1-(pyrimidin-2-yl)propyl)quinoline-6-carboxamide]: 100 nM and 2930 nM.
On to `COC[C@@H](C)N(Cc1ccc(C#N)cn1)C(=O)c1ccc2nc(N)c(Br)cc2c1` [Example 733, 2-amino-3-bromo-N-((5-cyano-2-pyridinyl)methyl)-N-((2R)-1-methoxy-2-propanyl)-6-quinolinecarboxamide], for which the IC50 was 434 nM in the assay with HCT116 MTAP null cells (HCT116-MTAP null, 144 h) and > 10000 nM in the assay on HCT116 WT cells (Homo sapiens, HCT-116, 144 h).
The matching figures for `Cc1cc2cc(C(=O)N(Cc3ccc(C(C)(C)O)cn3)[C@H](C)c3ncccn3)ccc2nc1N` [Example 801, 2-amino-N-((5-(2-hydroxy-2-propanyl)-2-pyridinyl)methyl)-3-methyl-N-((1R)-1-(2-pyrimidinyl)ethyl)-6-quinolinecarboxamide]: 533 nM and > 10000 nM.
Consider “2-amino-N-((1S,2S)-2-methoxy-2,3-dihydro-1H-inden-1-yl)-3-methyl-N-((5-(trifluoromethyl)-2-pyridinyl)methyl)-6-quinolinecarboxamide [Example 753]”, for which the results for the IC50 in the assay on HCT116 MTAP null cells and in the assay on HCT116 WT cells were 408 nM and > 10000 nM, respectively.
On to `C[C@H](c1ncccc1F)N(Cc1ccc(Br)nn1)C(=O)c1ccc2nc(N)c(Cl)cc2c1` [Example 739, 2-amino-N-((6-bromo-3-pyridazinyl)methyl)-3-chloro-N-((1R)-1-(3-fluoro-2-pyridinyl)ethyl)-6-quinolinecarboxamide], for which the IC50 was 355 nM in the assay with HCT116 MTAP null cells (HCT116-MTAP null, 144 h) and > 10000 nM with HCT116 WT cells (Homo sapiens, HCT-116, 144 h).

Values taken from patent US20230159510A1, “NOVEL PRMT5 INHIBITORS” (AMGEN INC., priority 2020, published 2023).
